Reference: patent US8663669B2, “Pesticide treatment of soils or substrates with sulphur compounds” (Arkema France, priority 2002, dated 2014)

Columns and labels:
[1] = tested on: eggs of nematodes (Meloidogyne arenaria); assay: Ovicidal activity on the eggs of nematodes (number of hatchings); assay type: in vivo
Experimental: The breeding of the nematodes was carried out on tomato plants. The tests were carried out with, aqueous solutions of DMDS at 0.0001%, 0.1%, 1% and 5% by mass, of DPDS at 1%, 5% and 10% by mass, and of allicin at 0.0003%, 0.0015% and 0.003% by mass, compared with a control consisting of pure water, and repeated five times. The ovicidal activity was also evaluated according to the same modalities, by counting the number of hatchings after 5 to 20 days following exposure to the products.

[2] = Diffusion of DMDS into the soil (column of earth, gas chromatography); assay type: physicochemical
Experimental: The rate of diffusion of DMDS was studied by filling a sealed thermal glass chamber of 3.3 litres and 40 cm in height with 2.5 litres of earth (that is 33 cm) obtained from the Garonne valley (sandy-muddy soil containing 1.6% of organic matter); the DMDS was deposited at the surface of the earth in 2 doses: 300 and 800 kg/ha, that is, considering a disinfection over 30 cm, doses of 100 and 266.6 g/m^3 of soil. There are then measured by gas chromatography, as a function of time (in hours), the concentrations of DMDS in gaseous form (in g/m^3) in the top free volume of the chamber (point A) and at 11 cm (point B), 22 cm (point C) and 33 cm (point D) below the level of the earth by means of 3 openings equipped with sealed septums on the side of the chamber; the variation in the concentration as a function of time for the 4 measurement points is thus obtained, as shown in Table 2 in the case of the 800 kg/ha dose.
The product CT of the concentrations C by the time of measurement T is another essential data which indicates the cumulative doses of DMDS to which are subjected the pathogenic organisms which may be present at the different measurement points. The CT values in gh/m^3 indicated in Table 3 are thus found for the two concentrations tested.

[3] = tested on: lettuce (variety Sprintia); assay: Phytotoxicity on lettuce, in a greenhouse; assay type: in vivo; settings: 150 kg/ha (formulation A)
Source text: Absence of phytotoxicity on lettuce of DMDS, applied at 150 kg/ha, in the open, in a greenhouse.
Lettuce variety: Sprintia
Treatment: DMDS is applied in the form of formulation A with the aid of a jet sprayer, and then incorporated over a depth of about 5 cm with a rotary hoe. The soil is then covered with a black polyethylene film.
Planting: 7 days after the treatment, at the rate of 160 000 plants/ha
Harvesting: 2 months and 20 days after planting.

soil microorganisms = assay: Effect on soil microorganisms (oxygen consumed); settings: 150 kg/ha (formulation A)
Experimental: The effect of DMDS, applied at 150 kg/ha in the form of formulation A, to soil microorganisms was evaluated according to the following standard methods: • “Recommended tests for assessing the side-effects of pesticides on the soil micro flora”, Technical Report Agricultural Research Council Weed Research Organization, 1980 (59). • “OECD Guideline for Testing of Chemicals—Soil Microorganisms: Carbon Mineralization Test”, Draft document, June 1996.
The effect of DMDS on soil microorganisms is measured by the reduction in the oxygen consumed by these microorganisms, expressed in mg O2 per kg of dry soil per h, 14, 28, 42, 57 days after the treatment (Table 14).

## CSSC [DMDS, dimethyl disulphide]
[1]; 1-10 % by mass
  Ovicidal activity: very high ovicidal activity
[1]; concentration by mass 1 %, D5, control 141
  Number of hatchings (cumulative): 7
[1]; concentration by mass 1 %, D10, control 179
  Number of hatchings (cumulative): 7
[1]; concentration by mass 1 %, D13, control 184
  Number of hatchings (cumulative): 7
[1]; concentration by mass 1 %, D17, control 184
  Number of hatchings (cumulative): 7
[1]; concentration by mass 5 %, D5, control 141
  Number of hatchings (cumulative): 2
[1]; concentration by mass 5 %, D10, control 179
  Number of hatchings (cumulative): 2
[1]; concentration by mass 5 %, D13, control 184
  Number of hatchings (cumulative): 5
[1]; concentration by mass 5 %, D17, control 184
  Number of hatchings (cumulative): 5
[1]; concentration by mass 10 %, D5, control 141
  Number of hatchings (cumulative): 0
[1]; concentration by mass 10 %, D10, control 179
  Number of hatchings (cumulative): 2
[1]; concentration by mass 10 %, D13, control 184
  Number of hatchings (cumulative): 5
[1]; concentration by mass 10 %, D17, control 184
  Number of hatchings (cumulative): 5
[1]; on the last day of observation
  Reduction in the number of hatchings: approximately 97%
[2]; 300 kg/ha, A (0 cm)
  CT (product of concentrations C by time T): 3187 gh/m^3
[2]; 300 kg/ha, B (−11 cm)
  CT (product of concentrations C by time T): 2737 gh/m^3
[2]; 300 kg/ha, C (−22 cm)
  CT (product of concentrations C by time T): 2753 gh/m^3
[2]; 300 kg/ha, D (−33 cm)
  CT (product of concentrations C by time T): 2210 gh/m^3
[2]; 800 kg/ha dose, 0 h, A (0 cm)
  DMDS concentration in gaseous form: 0 g/m^3
[2]; 800 kg/ha dose, 0 h, B (−11 cm)
  DMDS concentration in gaseous form: 0 g/m^3
[2]; 800 kg/ha dose, 0 h, C (−22 cm)
  DMDS concentration in gaseous form: 0 g/m^3
[2]; 800 kg/ha dose, 0 h, D (−33 cm)
  DMDS concentration in gaseous form: 0 g/m^3
[2]; 800 kg/ha dose, 33 cm of earth
  Time for the DMDS concentration to be homogeneous in the entire thickness of the column of earth: approximately 24 hours
[2]; 800 kg/ha dose, 1 h, A (0 cm)
  DMDS concentration in gaseous form: 144.9 g/m^3
[2]; 800 kg/ha dose, 1 h, B (−11 cm)
  DMDS concentration in gaseous form: 76.6 g/m^3
[2]; 800 kg/ha dose, 1 h, C (−22 cm)
  DMDS concentration in gaseous form: 3 g/m^3
[2]; 800 kg/ha dose, 1 h, D (−33 cm)
  DMDS concentration in gaseous form: 0 g/m^3
[2]; 800 kg/ha dose, 3 h, A (0 cm)
  DMDS concentration in gaseous form: 152.7 g/m^3
[2]; 800 kg/ha dose, 3 h, B (−11 cm)
  DMDS concentration in gaseous form: 73.9 g/m^3
[2]; 800 kg/ha dose, 3 h, C (−22 cm)
  DMDS concentration in gaseous form: 5.1 g/m^3
[2]; 800 kg/ha dose, 3 h, D (−33 cm)
  DMDS concentration in gaseous form: 0.3 g/m^3
[2]; 800 kg/ha dose, 5 h, A (0 cm)
  DMDS concentration in gaseous form: 96.3 g/m^3
[2]; 800 kg/ha dose, 5 h, B (−11 cm)
  DMDS concentration in gaseous form: 63.8 g/m^3
[2]; 800 kg/ha dose, 5 h, C (−22 cm)
  DMDS concentration in gaseous form: 48.4 g/m^3
[2]; 800 kg/ha dose, 5 h, D (−33 cm)
  DMDS concentration in gaseous form: 21.5 g/m^3
[2]; 800 kg/ha dose, 5.5 h, A (0 cm)
  DMDS concentration in gaseous form: 123.7 g/m^3
[2]; 800 kg/ha dose, 5.5 h, B (−11 cm)
  DMDS concentration in gaseous form: 91.4 g/m^3
[2]; 800 kg/ha dose, 5.5 h, C (−22 cm)
  DMDS concentration in gaseous form: 58.3 g/m^3
[2]; 800 kg/ha dose, 5.5 h, D (−33 cm)
  DMDS concentration in gaseous form: 29.4 g/m^3
[2]; 800 kg/ha dose, 24 h, A (0 cm)
  DMDS concentration in gaseous form: 32.7 g/m^3
[2]; 800 kg/ha dose, 24 h, B (−11 cm)
  DMDS concentration in gaseous form: 30.2 g/m^3
[2]; 800 kg/ha dose, 24 h, C (−22 cm)
  DMDS concentration in gaseous form: 40.1 g/m^3
[2]; 800 kg/ha dose, 24 h, D (−33 cm)
  DMDS concentration in gaseous form: 34.4 g/m^3
[2]; 800 kg/ha dose, 96 h, A (0 cm)
  DMDS concentration in gaseous form: 11.8 g/m^3
[2]; 800 kg/ha dose, 96 h, B (−11 cm)
  DMDS concentration in gaseous form: 11.5 g/m^3
[2]; 800 kg/ha dose, 96 h, C (−22 cm)
  DMDS concentration in gaseous form: 12.9 g/m^3
[2]; 800 kg/ha dose, 96 h, D (−33 cm)
  DMDS concentration in gaseous form: 14.6 g/m^3
[2]; 800 kg/ha, A (0 cm)
  CT (product of concentrations C by time T): 4145 gh/m^3
[2]; 800 kg/ha, B (−11 cm)
  CT (product of concentrations C by time T): 3327 gh/m^3
[2]; 800 kg/ha, C (−22 cm)
  CT (product of concentrations C by time T): 3276 gh/m^3
[2]; 800 kg/ha, D (−33 cm)
  CT (product of concentrations C by time T): 2809 gh/m^3
[2]; dose of 300 kg/ha
  CT values, order of magnitude: ~2 500 gh/m^3
[2]; dose of 800 kg/ha
  CT values, order of magnitude: ~3 000 gh/m^3
[3]; 1 and 2 months after planting
  Visual observations on the field: sign of phytotoxicity: no sign of phytotoxicity
[3]; harvest 2 months and 20 days after planting, control 490 g
  Average weight of the lettuce at harvest: 505 g
Soil microorganisms; Day 0, untreated control 11.23
  Oxygen consumed by soil microorganisms: 9.70 mg O2 per kg of dry soil per h
Soil microorganisms; Day 14, untreated control 10.18
  Oxygen consumed by soil microorganisms: 8.74 mg O2 per kg of dry soil per h
Soil microorganisms; Day 28, untreated control 7.87
  Oxygen consumed by soil microorganisms: 6.62 mg O2 per kg of dry soil per h
Soil microorganisms; Day 42, untreated control 9.12
  Oxygen consumed by soil microorganisms: 8.93 mg O2 per kg of dry soil per h
Soil microorganisms; Day 57, untreated control 7.30
  Oxygen consumed by soil microorganisms: 4.90 mg O2 per kg of dry soil per h
